In ChEMBL document CHEMBL3822442, “Synthesis and Pharmacological Characterization of Novel Glucagon-like Peptide-2 (GLP-2) Analogues with Low Systemic Clearance” (J Med Chem, 2016):
Active and inactive are the calls of the source. The calls are words filed in the database; no cut-off is given here. Non-standard residues stand in square brackets, D forms with d. Residues, ends and D or L forms follow the SMILES beside them. Nle = CCCC[C@H](N)C(=O)O

Experiments:
Format in all cases: cell-based
[1] = molecular target: T1, Glucagon-like peptide 2 receptor (Homo sapiens, UniProt O95838); assay: Agonist activity at human GLP2R expressed in HEK293 cells after 5 hrs by luciferase reporter gene assay
T1 sequence (O95838 whole entry): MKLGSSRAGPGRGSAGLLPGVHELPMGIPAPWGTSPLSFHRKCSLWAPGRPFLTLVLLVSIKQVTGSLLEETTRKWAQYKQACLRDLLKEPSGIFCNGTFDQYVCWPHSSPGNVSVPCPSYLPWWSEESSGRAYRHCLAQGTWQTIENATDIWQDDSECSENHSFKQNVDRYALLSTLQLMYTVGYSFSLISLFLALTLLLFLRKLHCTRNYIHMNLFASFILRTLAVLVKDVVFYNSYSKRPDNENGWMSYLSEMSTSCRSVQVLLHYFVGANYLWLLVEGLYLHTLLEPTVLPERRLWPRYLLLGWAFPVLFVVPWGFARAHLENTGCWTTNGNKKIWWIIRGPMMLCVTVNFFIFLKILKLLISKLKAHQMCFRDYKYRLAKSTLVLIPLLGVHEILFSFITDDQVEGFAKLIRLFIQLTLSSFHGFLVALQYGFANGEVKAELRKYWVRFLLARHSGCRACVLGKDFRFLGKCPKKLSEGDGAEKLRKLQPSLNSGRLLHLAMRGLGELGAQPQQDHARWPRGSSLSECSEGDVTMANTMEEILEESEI

[2] = molecular target: Glucagon-like peptide 1 receptor (Homo sapiens, UniProt P43220); assay: Agonist activity at human GLP1R expressed in HEK293 cells after 5 hrs by luciferase reporter gene assay
Chain of Glucagon-like peptide 1 receptor (P43220 whole entry): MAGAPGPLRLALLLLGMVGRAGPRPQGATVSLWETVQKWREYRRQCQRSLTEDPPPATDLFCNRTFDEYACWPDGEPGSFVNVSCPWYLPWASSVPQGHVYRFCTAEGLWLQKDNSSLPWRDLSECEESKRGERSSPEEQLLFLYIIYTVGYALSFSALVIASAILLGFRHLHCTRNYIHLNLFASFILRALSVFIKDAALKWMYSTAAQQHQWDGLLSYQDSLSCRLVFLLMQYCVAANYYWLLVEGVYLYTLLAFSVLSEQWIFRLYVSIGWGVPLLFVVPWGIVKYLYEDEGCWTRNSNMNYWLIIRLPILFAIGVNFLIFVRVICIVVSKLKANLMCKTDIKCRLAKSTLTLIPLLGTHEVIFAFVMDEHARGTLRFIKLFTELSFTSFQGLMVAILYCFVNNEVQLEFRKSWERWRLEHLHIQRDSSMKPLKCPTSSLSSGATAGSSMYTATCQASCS

[3] = molecular target: T2, Glucagon-like peptide 2 receptor (Homo sapiens) (UniProt O95838); assay: Potency index, ratio of compound EC50 to compound 2 EC50 for human GLP2R expressed in HEK293 cells
T2 sequence (whole entry): T1 sequence (O95838 whole entry)

HEK293 = assay: Selectivity ratio of EC50 for human GLP1R expressed in HEK293 cells to EC50 for human GLP2R expressed in HEK293
[4] = molecular target: Glucagon receptor (Homo sapiens) (UniProt P47871); assay: Agonist activity at human GCGR expressed in HEK293 cells after 5 hrs by luciferase reporter gene assay
Chain of Glucagon receptor (Homo sapiens) (P47871 whole entry): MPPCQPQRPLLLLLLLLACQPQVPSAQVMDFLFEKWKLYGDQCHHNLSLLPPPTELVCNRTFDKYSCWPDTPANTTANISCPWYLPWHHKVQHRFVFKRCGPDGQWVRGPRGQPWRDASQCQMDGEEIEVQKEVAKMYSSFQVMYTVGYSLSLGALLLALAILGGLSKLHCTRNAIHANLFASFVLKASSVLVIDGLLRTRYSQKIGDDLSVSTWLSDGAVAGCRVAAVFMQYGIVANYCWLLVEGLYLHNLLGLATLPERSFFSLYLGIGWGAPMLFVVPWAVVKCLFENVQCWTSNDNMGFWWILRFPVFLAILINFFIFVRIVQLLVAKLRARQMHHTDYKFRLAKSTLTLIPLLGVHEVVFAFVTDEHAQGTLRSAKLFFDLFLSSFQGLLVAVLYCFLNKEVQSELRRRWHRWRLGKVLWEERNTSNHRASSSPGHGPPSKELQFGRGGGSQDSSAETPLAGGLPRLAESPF

With `CCCCC(NC(=O)[C@H](CCC(=O)O)NC(=O)[C@H](CC(=O)O)NC(=O)[C@H](CO)NC(=O)[C@H](Cc1ccccc1)NC(=O)[C@H](CO)NC(=O)CNC(=O)[C@H](CC(=O)O)NC(=O)CNC(=O)[C@@H](N)Cc1cnc[nH]1)C(=O)N[C@@H](CC(N)=O)C(=O)N[C@H](C(=O)N[C@H](C(=O)N[C@@H](CC(C)C)C(=O)N[C@@H](CC(=O)O)C(=O)N[C@@H](CC(N)=O)C(=O)N[C@@H](CC(C)C)C(=O)N[C@@H](C)C(=O)N[C@@H](C)C(=O)N[C@@H](CCCNC(=N)N)C(=O)N[C@@H](CC(=O)O)C(=O)N[C@@H](Cc1ccccc1)C(=O)N[C@H](C(=O)N[C@H](CC(N)=O)C(=O)N[C@@H](Cc1c[nH]c2ccccc12)C(=O)N[C@@H](CC(C)C)C(=O)N[C@H](C(=O)N[C@@H](CCC(N)=O)C(=O)N[C@H](C(=O)N[C@@H](CCCCN)C(N)=O)[C@@H](C)O)[C@@H](C)CC)[C@@H](C)CC)[C@@H](C)CC)[C@@H](C)O` (stereo not given in full) the EC50 [1] was 0.43 nM, the EC50 [2] was > 1000 nM and the Ratio EC50 [3] was 2. For the same compound, the Ratio EC50 (HEK293) was > 2300 and the Activity [4] was “inactive”.
For `CCCCC(NC(=O)[C@H](CCC(=O)O)NC(=O)[C@H](CC(=O)O)NC(=O)[C@H](CO)NC(=O)[C@H](Cc1ccccc1)NC(=O)[C@H](CO)NC(=O)CNC(=O)[C@H](CC(=O)O)NC(=O)CNC(=O)[C@@H](N)Cc1cnc[nH]1)C(=O)N[C@@H](CC(N)=O)C(=O)N[C@H](C(=O)N[C@H](C(=O)N[C@@H](CC(C)C)C(=O)N[C@@H](CC(=O)O)C(=O)N[C@@H](CC(N)=O)C(=O)N[C@@H](CC(C)C)C(=O)N[C@@H](C)C(=O)N[C@@H](C)C(=O)N[C@@H](CCCNC(=N)N)C(=O)N[C@H](CC(=O)O)C(=O)N[C@@H](Cc1ccccc1)C(=O)N[C@H](C(=O)N[C@@H](CC(N)=O)C(=O)N[C@@H](Cc1c[nH]c2ccccc12)C(=O)N[C@@H](CC(C)C)C(=O)N[C@H](C(=O)N[C@@H](CCC(N)=O)C(=O)N[C@H](C(=O)N[C@@H](CCCCN)C(N)=O)[C@@H](C)O)[C@@H](C)CC)[C@@H](C)CC)[C@@H](C)CC)[C@@H](C)O` (stereo not given in full), the EC50 [1] was 0.47 nM, the EC50 [2] was > 1000 nM and the Ratio EC50 [3] was 2.1. The Ratio EC50 (HEK293) was > 2100 and the Activity [4] was “inactive”.
With `CCCC[C@H](NC(=O)[C@H](CCC(=O)O)NC(=O)[C@H](CC(=O)O)NC(=O)[C@H](CO)NC(=O)[C@H](Cc1ccccc1)NC(=O)[C@H](CO)NC(=O)[C@@H](C)NC(=O)[C@H](CC(=O)O)NC(=O)CNC(=O)[C@@H](N)Cc1cnc[nH]1)C(=O)N[C@@H](CC(N)=O)C(=O)N[C@H](C(=O)N[C@H](C(=O)N[C@@H](CC(C)C)C(=O)N[C@@H](CC(=O)O)C(=O)N[C@@H](CC(N)=O)C(=O)N[C@@H](CC(C)C)C(=O)N[C@@H](C)C(=O)N[C@@H](C)C(=O)N[C@@H](CCCNC(=N)N)C(=O)N[C@@H](CC(=O)O)C(=O)N[C@@H](Cc1ccccc1)C(=O)N[C@H](C(=O)N[C@@H](CC(N)=O)C(=O)N[C@@H](Cc1c[nH]c2ccccc12)C(=O)N[C@@H](CC(C)C)C(=O)N[C@H](C(=O)N[C@@H](CCC(N)=O)C(=O)N[C@H](C(=O)N[C@@H](CCCCN)C(N)=O)[C@@H](C)O)[C@@H](C)CC)[C@@H](C)CC)[C@@H](C)CC)[C@@H](C)O` (H-HGD[dA]SFSDE[Nle]NTILDNLAARDFINWLIQTK-NH2) the EC50 [1] was 0.2 nM, the EC50 [2] was > 1000 nM and the Ratio EC50 [3] was 0.91. The Ratio EC50 (HEK293) was > 5000 and the Activity [4] was “inactive”.
